Data: US20260287586A1, “METHODS OF TREATING TKI-RESISTANT AND SDH-DEFICIENT GIST” (priority 2023, published 2026)

Assays:
[1] = system: PC12 or PC12 #5F7 (SDHB KD) cells; assay: Cell death assay (AO/PI staining); type: cell-based, rat; conditions: 24 hours exposure; FIG. 2B left
Method: (§1) Cells were extracted from SDH-deficient patient tumor tissues, seeded into 96-well plates, and incubated for 24 hours in GIST culture medium. […] Right panel, Colony formation assay in renal carcinoma cells 7860 (SDHB-wild-type) and OS-RC-2 (SDHB-deficient). Cells were seeded into 6-well plates and incubated overnight in complete culture medium.
Rat pheochromocytoma cells (PC12 or PC12 SDHB KD cells PC12 #5F7) were seeded into 24-well plates and incubated overnight in complete culture medium. […] The cell suspension was mixed at a 1:1 ratio with Viastain™ AOPI Staining solution (acridine orange/propidium iodide, #2210170205, Nexelcom Bioscience, Lawrence, MA, USA). After staining, dead cells were counted on a Cellometer® Auto 2000 Cell Counter (Nexelcom).

SDH-deficient GIST = assay: Phase 1 trial HQP1351-SJ-0003: antitumor efficacy per RECIST v1.1 in SDH-deficient GIST subgroup; type: in vivo, human
Excerpt: NCT03594422). The dose escalation aspect of the study enrolled patients with advanced and/or metastatic GIST or other solid tumors that were refractory or had relapsed after treatment with at least one TKI. […] All AEs were graded according to the US National Cancer Institute (NCI) Common Terminology Criteria for Adverse Events (CTCAE; version 4.03). […] Urinalysis, coagulation, cardiac troponin I/T, lipase, amylase, and electrocardiograms were done at baseline; during cycles 1 and 2 (on days 1 and 15); cycle 3, 5, 7, and 9; every 3 cycles after cycle 9 (on day 1); and 14 days after the last dose of treatment. All patients underwent tumor imaging for response assessment via computed tomography or magnetic resonance imaging at screening and every two cycles (8 weeks) until progression or discontinuation. Target and nontarget lesions were assessed per Response Evaluation Criteria in Solid Tumors version 1.1 (RECIST v1.1). CBR was defined as the proportion of patients with a confirmed CR or PR of any duration or SD for at least 16 weeks from the start of treatment (CBR=CR+PR+SD≥16 weeks). ORR was defined as the proportion of patients with a confirmed CR or PR of any duration (ORR=CR+PR). PFS was defined as the time from the start of treatment to the date of first documented disease progression or death due to any cause, whichever occurred first. OS was defined as the time from start of treatment until the date of death. We evaluated antitumor activity in patients from the SDH-deficient GIST population who had at least one postbaseline disease assessment. We used Kaplan-Meier methods to estimate PFS, and OS; corresponding 95% CIs are provided. Efficacy results for patients with SDH-deficient GIST are reported separately. All statistical analyses were performed with SAS (version 9.3 or higher; SAS Institute, Cary, NC).

[2] = system: oncogenic signaling proteins in SDHB KD PC12 #5F7 cells; assay: Western blot analysis of oncogenic signaling proteins; type: cell-based, rat
Method: as §1
Harvested cells treated with dimethyl sulfoxide (DMSO) or indicated concentrations of compounds were lysed in radio-immunoprecipitation (RIPA) buffer (#P0013, Beyotime, China) containing a protease inhibitor cocktail (#20104ES08, Yeasen Biotechnology Co., Ltd., Shanghai) and a phosphatase inhibitor (#20109-A, #20109-B, Yeasen). Equal amounts of protein were separated by 4-20% sodium dodecyl sulfate polyacrylamide gel electrophoresis (SDS-PAGE) and transferred to nitrocellulose membranes. After being blocked with 3% bovine serum, membranes were incubated with primary antibodies, followed by horseradish peroxidase (HRP)-conjugated secondary antibody (#7074, anti-rabbit IgG, CST; #7076, anti-mouse IgG, CST). Finally, bound secondary antibodies were visualized using an ECL Western Blotting Detection Kit (Yeasen). […]

[3] = system: OS-RC-2 (SDHB-deficient) and 785-O (SDHB-competent) renal carcinoma cells; assay: Cell colony formation assay; type: cell-based; conditions: 7 days (SDHB-competent line), 10 days (OS-RC-2); FIG. 2B right
Method: as §1
For the colony formation assay, 1,000 cells were plated in 6-well plates per well, incubated for 7 to 14 days, then stained with 0.1% crystal violet and colony numbers counted.

Question: How did the “cell death activity in SDHB KD versus parental cells” value [1] turn out when `Cc1ccc(C(=O)Nc2ccc(CN3CCN(C)CC3)c(C(F)(F)F)c2)cc1C#Cc1cnc2[nH]ncc2c1` [Olverembatinib, olverembatinib] was run?
Answer: dose-dependently more potent activity in PC12 #5F7 than in parental PC12 cells

Question: And the overall survival rate (SDH-deficient GIST; SDH-deficient GIST cohort at data cut-off)?
Answer: 100%

Question: What about the “complete response (CR)” value (SDH-deficient GIST; SDH-deficient GIST subgroup, 26 evaluable patients) of the same compound?
Answer: No patient experienced a complete response

Question: What about the “confirmed overall responses per RECIST v1.1” value (SDH-deficient GIST; SDH-deficient GIST subgroup, median follow-up 17.0 months) of the same compound?
Answer: 6 of 26 evaluable patients

Question: And the “median progression-free survival (PFS)” value (SDH-deficient GIST; SDH-deficient GIST, Kaplan-Meier estimate, RECIST v1.1)?
Answer: 25.7 months

Question: What about the “effect on HIF-1α, HIF-2α, VEGFA, FGFR1, IGF-1R, p-FGFR1, p-IGF-1R, STAT3, p-STAT3, Src and downstream AKT, ERK1/2” value ([2]; 24 h treatment, FIG. 2C) of the same compound?
Answer: dose-dependently inhibited

Question: And the “cleavage of caspase-3 and poly(ADP-ribose) polymerase 1 (apoptosis induction)” value ([2]; tumor cell lines treated with olverembatinib)?
Answer: Increased cleavage of caspase-3 and poly(ADP-ribose) polymerase 1

Question: And the “inhibition of clone formation, OS-RC-2 versus 785-O” value [3]?
Answer: more significantly inhibited
